Measurements from patent US6713504B2, “Antifungal molecule 2-(3,4-dimethyl-2,5-dihydro-1H-pyrrol-2-yl)-1-methylethyl pentanoate” (Council of Scientific & Industrial Research, priority 2002, dated 2004).
≈ marks a conversion by molar mass, not a printed value.

Legend:
A. fumigatus infection = assay: Quantification of colony forming units in organs of infected mice; assay type: in vivo, Balb/C mice
Description: In vivo efficacy of the compound against A. fumigatus infection was studied in the Balb/C mice of 6-8 weak of age of either sex, weighing 15-20 g each. The mice model of aspergillosis described by Dixon et al (1989), was used to study the effects of compound on in vivo infection of A. fumigatus.
The animals were housed in the micro-barrier cages on sterile bedding and fed ad libitum water and food. The mice were divided into 6 groups and each group contained 8-10 animals. The mice were infected experimentally with A. fumigatus. Three days prior to infection with conidia, mice were injected subcutaneously with 3 doses (250.0 mg/kg/day) of cortisone acetate in 400.0 μl of PBS. On the infection day, each mouse received 2×10^7 conidia by nasal instillation of a single droplet of conidial suspension. The animals of this model developed invasive aspergillosis and all the infected animals died within 4-6 days.
The mice were kept under constant watch and those getting moribund, dying or survived up to 10 days were sacrificed. The autopsy was performed on the mice who had died to remove their organs for quantification of colony forming units (CFU). The lungs, livers and kidneys of the mice were removed aseptically, placed in sterile PBS (pH 7.2) and homogenized with teflon pestle mortar. The CFU in the animals were determined by plating 10 fold dilutions of organ homogenates on Sabouraud dextrose agar containing 0.05% triton X-100. The triton X-100 limited the colony size and thus greatly facilitated colony counting (Frosco, 1992). After an incubation for 48 h at 37° C., colonies were counted and results were expressed as CFU per organ.
The fungal burden in the organs of the animals, which died or became moribund during study or those survived up to 10th day, was determined. The lungs, livers and kidneys of the animals were isolated, homogenized and the homogenate was used to culture the pathogen on Sabouraud dextrose agar plates. The colonies of the fungus were counted and expressed as colony forming units (CFU)/organ.

[1] = In vitro cell cytotoxicity by MTT assay; assay type: cell-based; conditions: mouse; 1250.0 μg/ml; RAW cells; MTT; read-out: percent cytotoxicity
Method: (§1) The stock culture of RAW cells was obtained from National Facility for Cell and Tissue Culture, Pune.
(§2) The stock solution of the compound was prepared by dissolving 2.5 mg of the purified compound in minimum amount of DMSO and then diluted with double distilled water to make the final volume 1.0-ml.
(§3) The cells were harvested at the log phase of growth confluency from the flask. The homogeneous suspension of cells was prepared in 2.0 ml of culture medium. The number of cells in the suspension was counted using a hemocytometer and the cell suspension was diluted in such a way so as to obtain 5×10^7 viable cells per ml. The viability of the cells was checked with trypan blue dye exclusion test. The cytotoxicity assay was performed in 96 wells flat bottom tissue culture plates (Nunc Nunclon). The cells (5×10^6) in 100.0 μl volume were seeded into each well. The plate was incubated at 37° C. in atmosphere of 5% (v/v) CO2 for 8 h. The wells were examined microscopically for the formation of monolayer of the cells. […] In +ve control wells, a known cytotoxic protein obtained from A. fumigatus, was used. The ZnSO4 (8.0 mg/L) was used as another +ve toxic material in another set of wells. In negative control wells equivalent amount of the solvent was used. The duplicate wells were used for each concentration of the test compound. The plates were incubated at 37° C. in 5% (v/v) CO2 incubator overnight (12 h). The medium along with floating dead cells from the wells was removed by inverting the plate. Thus, only the live cells sticking to the surface of plate were left in the wells. […] After adding the dye to the wells, the plate was kept at 37° C. in 5% CO2 for 1 h. The tissue culture plate was removed from the incubator and all the dye was aspirated. Only live cells took up the dye. The cells were lysed by adding 100.0 μl of isopropanol-HCl to the wells. After lysis of the cells, the plates were read at 540 nm using plate reader (Spectra Max 190, Molecular Device).
(§4) The toxicity of the compound was expressed as percentage with respect to that obtained in −ve control sample. The percent cytotoxicity was calculated using the formula given below. [formula]
(§5) The percent cytotoxicity was plotted against log concentration of the compound to find out concentration which was cytotoxic to 50% of the cells (CT50).

RAW cells = assay: In vitro cell cytotoxicity by MTT assay; assay type: cell-based
Method: as §1, §2, §3, §4, §5

A. fumigatus = assay: Microbroth dilution assay; assay type: cell-based; set-up: key to Activity of the compound against Aspergillus sp. after 48 hrs.: +ve if medium appeared clear with out any growth of fungi; −ve if growth was there
Method: (§6) Pathogenic strains of fungi were obtained from the Mycology Department of Vallabhbhai Patel Chest Institute, Delhi. All the strains were grown on Sabouraud dextrose agar at 37° C. The conidia form these cultures were harvested and suspended in Sabouraud maltose broth. The number of conidia was counted using haemocytometer and their number in the suspension was adjusted to as per need of the experiment.
(§7) The antifungal susceptibility of the fungi to various fractions or the purified component was assayed by the microbroth dilution method (Forthergill A. W. and McGough A. W., 1995, Clin. Microbiol. Procedure Handbook. In Vitro susceptibility Testing of Yeast, 5.15.1-5.15.15). The fungal spores were harvested from 96-h cultures and their number adjusted to 1×10^6 per ml. The Sabouraud Dextrose medium was dissolved in glass double distilled water and autoclaved at 10 psi for 15 min. 90-μl medium was added into the wells of cell culture plates. The different concentrations of the extract, fractions or the purified compound were prepared in duplicate wells and then the wells were inoculated with 10 μl of spore suspension. The plates were incubated at 37° C. and examined macroscopically after 48 h for the growth of fungal mycelia. The activity was represented as −ve if growth was there and +ve if medium appeared clear with out any growth of fungi.
(§8) The antifungal susceptibility of the fungi to the purified compound was assayed by the microbroth dilution method. The different concentrations of the purified compound ranging from 21.87 to 350 μg/ml were prepared in duplicate wells by twofold dilution method. The test was done as described above.

A. niger = assay: Microbroth dilution assay; assay type: cell-based; set-up: key to Activity of the compound against Aspergillus sp. after 48 hrs.: +ve if medium appeared clear with out any growth of fungi; −ve if growth was there
Method: as §6, §7, §8

A. flavus = assay: Microbroth dilution assay; assay type: cell-based; set-up: key to Activity of the compound against Aspergillus sp. after 48 hrs.: +ve if medium appeared clear with out any growth of fungi; −ve if growth was there
Method: as §6, §7, §8

In the case of `CCCCC(=O)OC(C)CC1NCC(C)=C1C` (centres unmarked) [PC-1, 2-(3,4-dimethyl-2,5-dihydro-1H-pyrrol-2-yl)-1-methylethyl pentanoate], the “effect on colony counts in lung as compared to controls” value (A. fumigatus infection; 400 mg/kg body weight, p<0.001) is reported as “reduced the colony counts significantly”, the “effect on number of CFUs in kidneys” value (A. fumigatus infection; 100.0 to 400.0 mg/kg body weight) is reported as “significant reduction” and the “effect on the CFUs in the lung tissue” value (A. fumigatus infection; doses of 25.0 and 50.0 mg/kg body weight) is reported as “did not have any effect”. The “effect on CFUs in liver” value (A. fumigatus infection; liver) was “very less effect”, the cytotoxicity at 12 h, 1250 μg/ml [1] was 76% and the “concentration completely non-toxic to the cells” value (RAW cells; RAW cells, MTT) was “up to 312.5 μg/ml”. For the same compound, the “CT50 (dose cytotoxic to 50% of the cells)” value (RAW cells; RAW cells, MTT, 12 h) was 889.2 µg/mL, the “less cytotoxic than the standard antifungal drug Amphotericin B” value (RAW cells; comparison with Amphotericin B) was 57.8 times and the “Activity of the compound against Aspergillus sp. after 48 hrs.” value (from here on “Activity of the compound”) (A. fumigatus; 21.87 μg/ml) was “−”. For the same compound, the “Activity of the compound” value (A. fumigatus; 43.75 μg/ml) was “−”, the MIC (A. fumigatus; Aspergillus fumigatus, no visual growth, 48 h) was 87.5 µg/mL (≈ 366 µM) and the “Activity of the compound” value (A. niger; 21.87 μg/ml) was “−”. For the same compound, the “Activity of the compound” value (A. niger; 43.75 μg/ml) was “−”, the MIC (A. niger; Aspergillus niger, no visual growth, 48 h) was 87.5 µg/mL (≈ 366 µM) and the “Activity of the compound” value (A. flavus; 21.87 μg/ml) was “−”. For the same compound, the “Activity of the compound” value (A. flavus; 43.75 μg/ml) was “−” and the MIC (A. flavus; Aspergillus flavus, no visual growth, 48 h) was 87.5 µg/mL (≈ 366 µM).
